Measured values from US20100048400A1, “HERBICIDE COMBINATION” (BAYER CROPSCIENCE AG, priority 2007, published 2010).

Legend:
Format in all cases: in vivo
Conditions in all cases: after four weeks, 0=no damage 100=complete damage
Setaria viridis = assay: Post-emergence action against weeds, Example 2: greenhouse, visual scoring of damage
Protocol: (§1) The plant species listed below were sown in Jiffy pots and cultivated in a greenhouse at a day/night rhythm of 22° C./14° C. At the 2-4-leaf stage, the plants were then treated with an aqueous solution of the compounds in question at the stated dosages. After four weeks, the results were scored visually using the following scheme: 0=no damage 100=complete damage AS/ha=active substance/hectare

Digitaria sanguinalis = assay: as above
Protocol: as §1

Polygonum convolvulus [1] = assay: Post-emergence action against weeds, Example 3: greenhouse, visual scoring of damage
Protocol: as §1

Abutilon theophrasti = assay: as above
Protocol: as §1

Polygonum convolvulus [2] = assay: Post-emergence action against weeds, Example 2: greenhouse, visual scoring of damage
Protocol: as §1

Compound: Cc1ccc2c(c1)[C@H](Nc1nc(N)nc([C@@H](C)F)n1)[C@H](C)C2 (racemic) [Compound B-44, 2-amino-4-[(1RS,2RS)-2,6-dimethylindan-1-ylamino]-6-[(1RS)-1-fluorethyl]-1,3,5-triazine]
- Damage SETVI (Setaria viridis; 13 g of AS/ha): 3
- Damage SETVI (Setaria viridis; 25 g of AS/ha): 5

Compound: Cc1ccc2c(c1)[C@H](Nc1nc(N)nc([C@@H](C)F)n1)CC2 [Compound B-22, 2-amino-4-[(1R)-6-methylindan-1-ylamino]-6-[(1R)-1-fluoroethyl]-1,3,5-triazine]
- Damage DIGSA (Digitaria sanguinalis; 13 g of AS/ha): 24
- Damage DIGSA (Digitaria sanguinalis; 25 g of AS/ha): 55

Compound: Cc1ccc2c(c1)[C@H](Nc1nc(N)nc([C@@H](C)F)n1)[C@@H](C)C2 [Compound B-47, 2-amino-4-[(1R,2S)-2,6-dimethylindan-1-ylamino]-6-[(1R)-1-fluoroethyl]-1,3,5-triazine]
- Damage POLCO (Polygonum convolvulus [1]; 13 g of AS/ha): 0
- Damage POLCO (Polygonum convolvulus [1]; 25 g of AS/ha): 0
- Damage ABUTH (Abutilon theophrasti; 13 g of AS/ha): 5
- Damage ABUTH (Abutilon theophrasti; 25 g of AS/ha): 15
- Damage POLCO (Polygonum convolvulus [2]; 13 g of AS/ha): 0
- Damage POLCO (Polygonum convolvulus [2]; 25 g of AS/ha): 0
